Data as given in paper PMC3004370, “PI3Kα Inhibitors That Inhibit Metastasis” (Oncotarget, 2010).

Legend:
p110α = molecular target: T1, p110α (Homo sapiens, UniProt P42336); test: Biochemical PI3K inhibition assay, p110α
T1 construct: His-tag; made in house; host or cells: Sf9 insect cells (baculovirus)
Procedure: PIK3CD was generously provided by Novartis Pharmaceuticals. […] Sf9 cells were lysed in a buffer containing 50 mM sodium phosphate, pH 8.0, 400 mM NaCl, 5% glycerol, 1% Triton X-100, 10 mM 2-mercaptoethanol, 1 mM orthovanadate, 10 mM imidazole, and sonicated on ice for 1 minute. Proteins were purified by adding Ni-NTA Superflow beads (Qiagen, Valencia, CA, USA) to the lysate and subsequent rolling for 30 min at 4°C. Beads were washed twice with 50 mM phosphate buffer, pH 8.0, 0.5 M NaCl, 50 mM Imidazole, 2 mM DTT and eluted in the same buffer but with 200 mM imidazole. Purified PI3K's were mixed 1:1 with glycerol and stored at -20°C.
J-series inhibitors were dissolved, serial diluted in DMSO and deposited into 96 well plates at a final DMSO concentration of 1%. We used a novel assay to determine their potency and selectivity. […] Reactions were timed after the addition of 10 μM ATP with 40 μCi/ml γ-32P-ATP (PerkinElmer, Waltham, MA, USA) and 2 mM MgCl2 (all final concentrations). The reactions were terminated after two hours by the addition of 2 N HCl and the lipids extracted with 1:1 MetOH/Chloroform. Radio-labeled phosphatidyl-inositol-3-phosphate in the extracted organic fraction was quantified after the addition of Microscint O (PerkinElmer) using a TopCount 96 well plate scintillation counter (PerkinElmer). IC50 concentrations and inhibition curves were calculated using Prism 5 (GraphPad Software, La Jolla, CA).

p110β = molecular target: T2, p110β (Homo sapiens, UniProt P42338); test: Biochemical PI3K inhibition assay, p110β
T2 construct: His-tag; made in house; host or cells: Sf9 insect cells (baculovirus)
T2 sequence (P42338 whole entry): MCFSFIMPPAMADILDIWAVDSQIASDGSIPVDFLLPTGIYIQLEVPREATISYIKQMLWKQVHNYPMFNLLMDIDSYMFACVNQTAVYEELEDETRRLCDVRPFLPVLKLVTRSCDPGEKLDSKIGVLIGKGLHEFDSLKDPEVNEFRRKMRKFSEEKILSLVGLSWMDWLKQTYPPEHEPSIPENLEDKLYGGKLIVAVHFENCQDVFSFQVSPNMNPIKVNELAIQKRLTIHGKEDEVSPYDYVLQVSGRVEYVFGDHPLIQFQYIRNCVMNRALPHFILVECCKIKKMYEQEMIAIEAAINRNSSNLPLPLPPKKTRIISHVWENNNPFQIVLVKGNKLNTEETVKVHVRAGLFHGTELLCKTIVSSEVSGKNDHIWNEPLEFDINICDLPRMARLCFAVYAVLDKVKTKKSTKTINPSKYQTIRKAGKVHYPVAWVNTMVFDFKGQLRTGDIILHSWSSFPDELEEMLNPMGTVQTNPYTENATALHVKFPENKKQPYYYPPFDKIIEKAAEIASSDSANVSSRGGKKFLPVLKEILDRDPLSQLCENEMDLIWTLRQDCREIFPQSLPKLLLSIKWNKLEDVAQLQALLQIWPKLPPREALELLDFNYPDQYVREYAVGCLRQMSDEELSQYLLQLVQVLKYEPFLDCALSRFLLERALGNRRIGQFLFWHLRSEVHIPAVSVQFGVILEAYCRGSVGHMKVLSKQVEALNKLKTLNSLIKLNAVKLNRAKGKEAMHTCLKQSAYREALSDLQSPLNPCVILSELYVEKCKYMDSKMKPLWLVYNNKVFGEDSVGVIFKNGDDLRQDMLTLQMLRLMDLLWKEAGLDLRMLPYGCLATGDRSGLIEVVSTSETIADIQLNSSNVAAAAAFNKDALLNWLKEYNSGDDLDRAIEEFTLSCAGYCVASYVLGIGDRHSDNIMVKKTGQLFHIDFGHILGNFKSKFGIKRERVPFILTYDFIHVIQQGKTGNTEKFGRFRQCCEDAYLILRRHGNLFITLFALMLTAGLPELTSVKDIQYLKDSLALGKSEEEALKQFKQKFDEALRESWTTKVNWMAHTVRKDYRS
T2 sequence (P27986 322-600 partner limits assumed): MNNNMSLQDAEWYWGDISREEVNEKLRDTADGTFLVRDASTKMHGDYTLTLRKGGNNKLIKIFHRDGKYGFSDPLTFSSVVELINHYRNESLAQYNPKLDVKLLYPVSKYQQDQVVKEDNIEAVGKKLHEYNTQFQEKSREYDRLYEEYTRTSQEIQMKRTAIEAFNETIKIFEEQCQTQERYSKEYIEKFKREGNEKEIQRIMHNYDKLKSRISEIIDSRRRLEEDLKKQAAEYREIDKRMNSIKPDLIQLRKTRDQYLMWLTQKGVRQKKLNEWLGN
Excerpt: (§1) cDNA clones of PIK3CA, PIK3CB and PIK3CG were obtained from Origene (Rockville, MD, USA). PIK3CD was generously provided by Novartis Pharmaceuticals. The cDNA clones were sub-cloned into pFastBac His-Tag (Invitrogen, Carlsbad, CA, USA) and baculovirus clones were generated by the Bac-to-Bac expression system (Invitrogen). p110α, p110β and p110δ were co-expressed in Sf9 insect cells (Invitrogen) with a nSH2-iSH2 fragment of the regulatory subunit p85 comprising AA residues 322 to 600 [4]. p110γ was expressed without a regulatory subunit. Sf9 cells were lysed in a buffer containing 50 mM sodium phosphate, pH 8.0, 400 mM NaCl, 5% glycerol, 1% Triton X-100, 10 mM 2-mercaptoethanol, 1 mM orthovanadate, 10 mM imidazole, and sonicated on ice for 1 minute. Proteins were purified by adding Ni-NTA Superflow beads (Qiagen, Valencia, CA, USA) to the lysate and subsequent rolling for 30 min at 4°C. Beads were washed twice with 50 mM phosphate buffer, pH 8.0, 0.5 M NaCl, 50 mM Imidazole, 2 mM DTT and eluted in the same buffer but with 200 mM imidazole. Purified PI3K's were mixed 1:1 with glycerol and stored at -20°C.
(§2) J-series inhibitors were dissolved, serial diluted in DMSO and deposited into 96 well plates at a final DMSO concentration of 1%. We used a novel assay to determine their potency and selectivity. In brief, micelles of 2.5 μg L-a-Phosphatidylinositol and 2.5 μg 1,2-Diacyl-sn-glycero-3-phospho-L-serine were formed by sonication, mixed with the individual PI3K isoforms and added to the drug dilutions in a reaction buffer containing 10 mM HEPES, 25 mM NaCl, 0.125 μg/μl BSA, and 2 mM BME (final concentrations). Reactions were timed after the addition of 10 μM ATP with 40 μCi/ml γ-32P-ATP (PerkinElmer, Waltham, MA, USA) and 2 mM MgCl2 (all final concentrations). The reactions were terminated after two hours by the addition of 2 N HCl and the lipids extracted with 1:1 MetOH/Chloroform. Radio-labeled phosphatidyl-inositol-3-phosphate in the extracted organic fraction was quantified after the addition of Microscint O (PerkinElmer) using a TopCount 96 well plate scintillation counter (PerkinElmer). IC50 concentrations and inhibition curves were calculated using Prism 5 (GraphPad Software, La Jolla, CA).

p110δ = molecular target: T3, p110δ (Homo sapiens, UniProt O00329); test: Biochemical PI3K inhibition assay, p110δ; conditions: 10 μM ATP, two hours
T3 construct: His-tag; made in house; host or cells: Sf9 insect cells (baculovirus)
Excerpt: as §1, §2

ACK1 = molecular target: T4, ACK1 (Homo sapiens, UniProt Q07912); test: Millipore KinaseProfiler; format: biochemical; conditions: read-out: % of control
T4 construct: purchased Millipore (KinaseProfiler service)
Excerpt: (§3) Supplement oncotarget-01-339-s001.doc, table 1: Supplementary Table 1. Millipore KinaseProfiler excerpt | column: % of control

EGFR(T790M,L858R) = molecular target: T5, EGFR(T790M,L858R) (Homo sapiens, UniProt P00533, L858R/T790M); test: Millipore KinaseProfiler; format: biochemical; conditions: read-out: % of control
T5 construct: purchased Millipore (KinaseProfiler service)
Excerpt: as §3

EphB1 = molecular target: T6, EphB1 (Homo sapiens, UniProt P54762); test: Millipore KinaseProfiler; format: biochemical; conditions: read-out: % of control
T6 construct: purchased Millipore (KinaseProfiler service)
T6 sequence (P54762 18-984): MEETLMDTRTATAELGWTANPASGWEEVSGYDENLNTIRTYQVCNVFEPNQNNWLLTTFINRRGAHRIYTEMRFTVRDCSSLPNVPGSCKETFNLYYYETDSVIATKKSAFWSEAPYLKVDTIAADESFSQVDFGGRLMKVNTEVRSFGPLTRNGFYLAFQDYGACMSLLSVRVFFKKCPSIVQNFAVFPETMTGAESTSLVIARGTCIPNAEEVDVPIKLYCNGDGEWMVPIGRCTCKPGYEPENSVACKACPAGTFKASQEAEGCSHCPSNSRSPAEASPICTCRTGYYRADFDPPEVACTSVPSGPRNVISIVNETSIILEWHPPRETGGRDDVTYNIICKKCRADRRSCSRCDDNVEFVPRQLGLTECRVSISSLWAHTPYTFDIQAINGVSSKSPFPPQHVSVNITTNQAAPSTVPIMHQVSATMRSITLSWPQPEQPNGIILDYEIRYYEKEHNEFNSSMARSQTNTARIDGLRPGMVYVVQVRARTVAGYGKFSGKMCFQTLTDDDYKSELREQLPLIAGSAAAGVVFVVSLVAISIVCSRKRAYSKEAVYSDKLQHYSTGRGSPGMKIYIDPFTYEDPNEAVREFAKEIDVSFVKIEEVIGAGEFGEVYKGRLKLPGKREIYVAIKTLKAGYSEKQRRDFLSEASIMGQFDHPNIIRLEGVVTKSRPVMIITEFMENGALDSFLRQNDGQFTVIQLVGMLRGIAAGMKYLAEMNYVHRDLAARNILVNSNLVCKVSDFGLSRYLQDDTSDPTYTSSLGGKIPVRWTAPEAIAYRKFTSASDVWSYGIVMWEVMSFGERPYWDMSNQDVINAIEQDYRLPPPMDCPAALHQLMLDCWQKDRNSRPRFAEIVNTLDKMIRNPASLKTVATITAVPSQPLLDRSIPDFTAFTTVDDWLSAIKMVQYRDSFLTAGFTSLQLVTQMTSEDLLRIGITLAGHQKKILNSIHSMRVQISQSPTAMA
Excerpt: as §3

Flt3(D835Y) = molecular target: T7, Flt3(D835Y) (Homo sapiens, UniProt P36888, D835Y); test: Millipore KinaseProfiler; format: biochemical; conditions: read-out: % of control
T7 construct: purchased Millipore (KinaseProfiler service)
Excerpt: as §3

Haspin = molecular target: T8, Haspin (Homo sapiens, UniProt Q8TF76); test: Millipore KinaseProfiler; format: biochemical; conditions: read-out: % of control
T8 construct: purchased Millipore (KinaseProfiler service)
Excerpt: as §3

IRAK1 = molecular target: T9, IRAK1 (Homo sapiens, UniProt P51617); test: Millipore KinaseProfiler; format: biochemical; conditions: read-out: % of control
T9 construct: purchased Millipore (KinaseProfiler service)
T9 sequence (P51617 whole entry): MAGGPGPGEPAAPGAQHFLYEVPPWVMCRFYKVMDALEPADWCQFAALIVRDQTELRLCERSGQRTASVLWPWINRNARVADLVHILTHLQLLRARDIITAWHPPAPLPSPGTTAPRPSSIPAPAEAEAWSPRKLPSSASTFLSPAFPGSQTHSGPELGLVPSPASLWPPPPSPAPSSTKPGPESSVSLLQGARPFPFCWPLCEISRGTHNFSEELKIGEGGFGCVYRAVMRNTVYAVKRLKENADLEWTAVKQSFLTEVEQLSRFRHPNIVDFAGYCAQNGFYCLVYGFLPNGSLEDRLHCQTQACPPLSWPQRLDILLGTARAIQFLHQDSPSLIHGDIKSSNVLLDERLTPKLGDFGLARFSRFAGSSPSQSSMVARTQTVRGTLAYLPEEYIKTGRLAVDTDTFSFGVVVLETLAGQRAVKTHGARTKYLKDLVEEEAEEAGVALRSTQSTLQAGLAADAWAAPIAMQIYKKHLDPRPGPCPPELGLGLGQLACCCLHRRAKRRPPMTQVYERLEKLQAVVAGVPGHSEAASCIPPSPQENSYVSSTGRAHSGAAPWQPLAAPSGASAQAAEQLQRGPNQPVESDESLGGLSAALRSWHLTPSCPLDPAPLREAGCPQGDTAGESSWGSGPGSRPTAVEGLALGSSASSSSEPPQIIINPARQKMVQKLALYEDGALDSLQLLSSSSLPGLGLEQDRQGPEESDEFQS
Excerpt: as §3

LIMK1 = molecular target: T10, LIMK1 (Homo sapiens, UniProt P53667); test: Millipore KinaseProfiler; format: biochemical; conditions: read-out: % of control
T10 construct: purchased Millipore (KinaseProfiler service)
Excerpt: as §3

MELK = molecular target: T11, MELK (Homo sapiens, UniProt Q14680); test: Millipore KinaseProfiler; format: biochemical; conditions: read-out: % of control
T11 construct: purchased Millipore (KinaseProfiler service)
T11 sequence (Q14680 whole entry): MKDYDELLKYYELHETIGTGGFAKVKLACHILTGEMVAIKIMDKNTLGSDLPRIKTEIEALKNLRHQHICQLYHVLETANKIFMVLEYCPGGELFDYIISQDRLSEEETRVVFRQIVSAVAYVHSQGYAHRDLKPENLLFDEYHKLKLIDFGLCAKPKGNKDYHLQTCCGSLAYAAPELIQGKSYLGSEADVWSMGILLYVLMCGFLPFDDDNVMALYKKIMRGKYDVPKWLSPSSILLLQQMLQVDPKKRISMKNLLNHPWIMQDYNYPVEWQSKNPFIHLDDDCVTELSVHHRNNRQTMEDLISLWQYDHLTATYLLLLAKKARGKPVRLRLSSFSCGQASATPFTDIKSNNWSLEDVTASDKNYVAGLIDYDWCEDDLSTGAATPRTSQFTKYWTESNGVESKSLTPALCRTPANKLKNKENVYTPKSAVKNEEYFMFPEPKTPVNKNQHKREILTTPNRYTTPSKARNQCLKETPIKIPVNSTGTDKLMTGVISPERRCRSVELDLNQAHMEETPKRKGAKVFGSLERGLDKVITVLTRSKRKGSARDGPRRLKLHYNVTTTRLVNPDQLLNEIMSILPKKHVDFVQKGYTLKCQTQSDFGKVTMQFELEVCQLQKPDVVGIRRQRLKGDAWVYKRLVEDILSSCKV
Excerpt: as §3

Mer = molecular target: T12, Mer (Homo sapiens, UniProt Q12866); test: Millipore KinaseProfiler; format: biochemical; conditions: read-out: % of control
T12 construct: purchased Millipore (KinaseProfiler service)
Excerpt: as §3

NEK2 = molecular target: T13, NEK2 (Homo sapiens, UniProt P51955); test: Millipore KinaseProfiler; format: biochemical; conditions: read-out: % of control
T13 construct: purchased Millipore (KinaseProfiler service)
Excerpt: as §3

PKCθ = molecular target: T14, PKCθ (Homo sapiens, UniProt Q04759); test: Millipore KinaseProfiler; format: biochemical; conditions: read-out: % of control
T14 construct: purchased Millipore (KinaseProfiler service)
Excerpt: as §3

TrkA = molecular target: T15, TrkA (Homo sapiens, UniProt P04629); test: Millipore KinaseProfiler; format: biochemical; conditions: read-out: % of control
T15 construct: purchased Millipore (KinaseProfiler service)
Excerpt: as §3

cSRC = molecular target: T16, cSRC (Homo sapiens, UniProt P12931); test: Millipore KinaseProfiler; format: biochemical; conditions: read-out: % of control
T16 construct: purchased Millipore (KinaseProfiler service)
Excerpt: as §3

mTOR = molecular target: T17, mTOR (Homo sapiens, UniProt P42345); test: Panel of 273 kinases, mTOR; format: biochemical
T17 construct: purchased Millipore (KinaseProfiler service)
Procedure: The compounds were also tested for their capacity to inhibit two common mutant forms of PI3Kα – E545K and H1047R [2, 33]. None of the compounds discriminated between the wild-type (wt) and mutant forms of the enzyme (data not shown). Finally, we also tested one of the compounds (J124, chosen for reasons discussed later) against a panel of 273 kinases.

T1 sequence (P42336 whole entry): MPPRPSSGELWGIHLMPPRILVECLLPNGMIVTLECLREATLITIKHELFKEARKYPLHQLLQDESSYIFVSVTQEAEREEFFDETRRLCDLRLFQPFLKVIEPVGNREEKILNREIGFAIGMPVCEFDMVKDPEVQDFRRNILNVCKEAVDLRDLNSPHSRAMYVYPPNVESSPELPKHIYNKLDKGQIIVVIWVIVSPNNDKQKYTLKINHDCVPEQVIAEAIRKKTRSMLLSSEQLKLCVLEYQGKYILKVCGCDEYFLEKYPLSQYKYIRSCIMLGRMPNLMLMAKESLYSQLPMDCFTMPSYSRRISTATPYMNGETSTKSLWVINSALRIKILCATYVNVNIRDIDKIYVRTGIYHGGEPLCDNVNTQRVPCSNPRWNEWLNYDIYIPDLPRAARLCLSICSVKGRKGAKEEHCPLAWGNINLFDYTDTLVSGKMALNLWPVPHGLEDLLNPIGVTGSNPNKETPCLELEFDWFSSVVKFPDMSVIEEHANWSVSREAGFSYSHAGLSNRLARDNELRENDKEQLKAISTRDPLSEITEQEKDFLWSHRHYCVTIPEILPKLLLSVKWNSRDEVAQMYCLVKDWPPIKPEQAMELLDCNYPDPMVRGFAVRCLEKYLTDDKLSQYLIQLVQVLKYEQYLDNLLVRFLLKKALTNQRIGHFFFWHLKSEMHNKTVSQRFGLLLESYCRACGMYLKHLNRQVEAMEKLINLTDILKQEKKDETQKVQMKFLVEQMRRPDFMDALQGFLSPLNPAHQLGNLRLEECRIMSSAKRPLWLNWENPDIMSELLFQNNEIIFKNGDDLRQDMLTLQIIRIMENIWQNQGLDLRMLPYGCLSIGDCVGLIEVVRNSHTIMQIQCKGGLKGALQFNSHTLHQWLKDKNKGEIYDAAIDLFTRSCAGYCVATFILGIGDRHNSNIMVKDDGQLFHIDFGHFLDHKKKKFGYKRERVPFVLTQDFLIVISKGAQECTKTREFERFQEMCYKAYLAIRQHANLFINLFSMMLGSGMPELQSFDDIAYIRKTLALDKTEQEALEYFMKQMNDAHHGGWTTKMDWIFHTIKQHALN
T1 sequence (P27986 322-600 partner limits assumed): as the sequence (P27986 322-600 partner limits assumed) above

IC50 (p110α; 10 μM ATP, two hours): 11 nM | increase of inhibitory activity for PI3Kα (p110α; compared to J32): 1.4 fold | IC50 (p110β; 10 μM ATP, two hours): 270 nM | selectivity against PI3Kβ (p110β; relative to PI3Kα): > 20 fold | IC50 (p110δ): 160 nM | remaining activity at 0.011 µM (ACK1): 30% | remaining activity at 0.011 µM (EGFR(T790M,L858R)): 46% | remaining activity at 0.011 µM (EphB1): 46% | remaining activity at 0.011 µM (Flt3(D835Y)): 3% | remaining activity at 0.011 µM (Haspin): -1% | remaining activity at 0.011 µM (IRAK1): 42% | remaining activity at 0.011 µM (LIMK1): 36% | remaining activity at 0.011 µM (MELK): 23% | remaining activity at 0.011 µM (Mer): 33% | remaining activity at 0.011 µM (NEK2): 42% | remaining activity at 0.011 µM (PKCθ): 35% | remaining activity at 0.011 µM (TrkA): 11% | remaining activity at 0.011 µM (cSRC): 48% | inhibition of mTOR with an IC50 of 11 nM or lower (mTOR): not mTOR
Compound: CCN(/N=C/c1cnc2ccc(Br)cn12)S(=O)(=O)c1cc([N+](=O)[O-])c(NC(=O)C(F)(F)F)cc1C [J124]
